Assay results taken from patent US20250346593A1, “IMIDAZO(1,2-1)PYRIDINE DERIVATIVES AS RIPK2 INHIBITORS” (Interline Therapeutics, Inc., priority 2022, published 2025).
pIC50: −log10 of the molar value. Where two headings read alike, the source gives them in different places.

What was measured:
[1] = test system: NF-κB pathway (SEAP) in THP1-Dual cells; test: THP-1 Dual cell SEAP assay (L18-MDP stimulated); type: cell-based; details: Homo sapiens, THP1-Dual, read-out: NFkB THP1 IC50
[2] = molecular target: GST-RIPK2 fusion protein (human RIPK2 amino acids 1-310) (Homo sapiens (Human), UniProt O43353); test: RIPK2 binding competition assay (TR-FRET, Tracer 199)
[3] = read-out: RIPK2 IC50, RIPK2 binding competition assay

Chain of GST-RIPK2 fusion protein (human RIPK2 amino acids 1-310) (O43353 1-310): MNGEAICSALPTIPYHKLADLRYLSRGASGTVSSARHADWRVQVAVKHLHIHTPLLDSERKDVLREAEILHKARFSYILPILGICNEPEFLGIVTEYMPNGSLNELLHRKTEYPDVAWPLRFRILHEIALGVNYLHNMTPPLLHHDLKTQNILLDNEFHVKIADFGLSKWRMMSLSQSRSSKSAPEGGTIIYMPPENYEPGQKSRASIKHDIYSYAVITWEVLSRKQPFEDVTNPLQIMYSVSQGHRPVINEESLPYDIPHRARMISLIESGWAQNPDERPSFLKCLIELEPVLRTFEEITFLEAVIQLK

Row | SMILES | pIC50 [1] | pIC50 [2] | pIC50 [2, 3]
1 | COc1cn2ncc(-c3cnc(N)c(F)c3)c2cc1S(=O)(=O)C(C)(C)C [Example 97, 5-(5-(tert-butylsulfonyl)-6-methoxypyrazolo[1,5-a]pyridin-3-yl)-3-fluoropyridin-2-amine] | 6.00 to 6.60 | 7.70 to 8.60 | –
2 | COc1cc2ncc(-c3cnc(N)c(C(F)F)c3)n2cc1S(=O)(=O)C(C)(C)C [Example 98, 5-(6-(tert-butylsulfonyl)-7-methoxyimidazo[1,2-a]pyridin-3-yl)-3-(difluoromethyl)pyridin-2-amine] | < 6.00 | – | < 7.70
3 | COc1cc2ncc(-c3ccc(N)nc3Cl)n2cc1S(=O)(=O)C(C)(C)C [Example 99, 5-(6-(tert-butylsulfonyl)-7-methoxyimidazo[1,2-a]pyridin-3-yl)-6-chloropyridin-2-amine] | < 6.00 | – | < 7.70
4 | COc1cn2ncc(-c3cc(F)c(N)nc3F)c2cc1S(=O)(=O)C(C)(C)C [Example 100, 5-(5-(tert-butylsulfonyl)-6-methoxypyrazolo[1,5-a]pyridin-3-yl)-3,6-difluoropyridin-2-amine] | 6.00 to 6.60 | 7.70 to 8.60 | –
5 | COc1cc2ncc(-c3ccc(N4CCOCC4)nc3F)n2cc1S(=O)(=O)C(C)(C)C [Example 101, 4-(5-(6-(tert-butylsulfonyl)-7-methoxyimidazo[1,2-a]pyridin-3-yl)-6-fluoropyridin-2-yl)morpholine] | < 6.00 | – | < 7.70
6 | COc1cc2ncc(-c3cc(Cl)c(N)nc3OC)n2cc1S(=O)(=O)C(C)(C)C [Example 102, 5-(6-(tert-butylsulfonyl)-7-methoxyimidazo[1,2-a]pyridin-3-yl)-3-chloro-6-methoxypyridin-2-amine] | 6.00 to 6.60 | 7.70 to 8.60 | –
7 | COc1cc2ncc(-c3cnc(N)cn3)n2cc1S(=O)(=O)C(C)(C)C [Example 103, 5-(6-(tert-butylsulfonyl)-7-methoxyimidazo[1,2-a]pyridin-3-yl)pyrazin-2-amine] | < 6.00 | – | < 7.70
8 | COc1cn2ncc(-c3cc(OC)c(N)nc3F)c2cc1S(=O)(=O)C(C)(C)C [Example 104, 5-(5-(tert-butylsulfonyl)-6-methoxypyrazolo[1,5-a]pyridin-3-yl)-6-fluoro-3-methoxypyridin-2-amine] | < 6.00 | 7.70 to 8.60 | –
9 | COc1cn2ncc(-c3cc(Cl)c(N)nc3F)c2cc1S(=O)(=O)C(C)(C)C [Example 105, 5-(5-(tert-butylsulfonyl)-6-methoxypyrazolo[1,5-a]pyridin-3-yl)-3-chloro-6-fluoropyridin-2-amine] | 6.60 to 7.30 | 7.70 to 8.60 | –
10 | COc1cc2ncc(-c3cc(F)c(N)nc3OC)n2cc1S(=O)(=O)C(C)(C)C [Example 106, 5-(6-(tert-butylsulfonyl)-7-methoxyimidazo[1,2-a]pyridin-3-yl)-3-fluoro-6-methoxypyridin-2-amine] | 6.00 to 6.60 | 7.70 to 8.60 | –
11 | COc1cc2ncc(-c3cc(C#N)c(N)nc3F)n2cc1S(=O)(=O)C(C)(C)C [Example 107, 2-amino-5-(6-(tert-butylsulfonyl)-7-methoxyimidazo[1,2-a]pyridin-3-yl)-6-fluoronicotinonitrile] | < 6.00 | 7.70 to 8.60 | –
12 | COc1cc2ncc(-c3ccc(N)nc3C#N)n2cc1S(=O)(=O)C(C)(C)C [Example 108, 6-amino-3-(6-(tert-butylsulfonyl)-7-methoxyimidazo[1,2-a]pyridin-3-yl)picolinonitrile] | < 6.00 | – | < 7.70
13 | COc1cc2ncc(-c3cnc(N)c(C)n3)n2cc1S(=O)(=O)C(C)(C)C [Example 109, 5-(6-(tert-butylsulfonyl)-7-methoxyimidazo[1,2-a]pyridin-3-yl)-3-methylpyrazin-2-amine] | < 6.00 | – | < 7.70
14 | COc1cn2ncc(-c3cc(C#N)c(N)nc3F)c2cc1S(=O)(=O)C(C)(C)C [Example 110, 2-amino-5-(5-(tert-butylsulfonyl)-6-methoxypyrazolo[1,5-a]pyridin-3-yl)-6-fluoronicotinonitrile] | < 6.00 | 7.70 to 8.60 | –
15 | COc1cc2ncc(-c3cc(F)c(N)c(C)c3F)n2cc1S(=O)(=O)C(C)(C)C [Example 111, 4-(6-(tert-butylsulfonyl)-7-methoxyimidazo[1,2-a]pyridin-3-yl)-3,6-difluoro-2-methylaniline] | 6.60 to 7.30 | 8.60 to 9.00 | –
16 | CCOc1nc(N)c(F)cc1-c1cnc2cc(OC)c(S(=O)(=O)C(C)(C)C)cn12 [Example 112, 5-(6-(tert-butylsulfonyl)-7-methoxyimidazo[1,2-a]pyridin-3-yl)-6-ethoxy-3-fluoropyridin-2-amine] | < 6.00 | 7.70 to 8.60 | –
17 | COc1cc2ncc(-c3cc(F)c(N)nc3OC(C)C)n2cc1S(=O)(=O)C(C)(C)C [Example 113, 5-(6-(tert-butylsulfonyl)-7-methoxyimidazo[1,2-a]pyridin-3-yl)-3-fluoro-6-isopropoxypyridin-2-amine] | < 6.00 | – | < 7.70

Row | SMILES | pIC50 [1] | pIC50 [2] | pIC50 [2, 3]
18 | CCOc1cn2ncc(-c3cc(Cl)c(N)nc3F)c2cc1S(=O)(=O)C(C)(C)C [Example 114, 5-(5-(tert-butylsulfonyl)-6-ethoxypyrazolo[1,5-a]pyridin-3-yl)-3-chloro-6-fluoropyridin-2-amine] | 6.60 to 7.30 | 8.60 to 9.00 | –
19 | CCOc1cn2ncc(-c3cc(F)c(N)nc3F)c2cc1S(=O)(=O)C(C)(C)C [Example 115, 5-(5-(tert-butylsulfonyl)-6-ethoxypyrazolo[1,5-a]pyridin-3-yl)-3,6-difluoropyridin-2-amine] | 6.00 to 6.60 | 7.70 to 8.60 | –
20 | CC(C)(C)S(=O)(=O)c1cn2c(-c3cc(F)c(N)nc3F)cnc2cc1OC(F)F [Example 116, 5-(6-(tert-butylsulfonyl)-7-(difluoromethoxy)imidazo[1,2-a]pyridin-3-yl)-3,6-difluoropyridin-2-amine] | < 6.00 | 7.70 to 8.60 | –
21 | CCOc1cc2ncc(-c3cnc(N)c(F)c3)n2cc1S(=O)(=O)C(C)C [Example 117, 5-[6-ethoxy-5-(isopropylsulfonyl)-1,3a-diaza-3-indenyl]-3-fluoro-2-pyridylamine] | < 6.00 | – | < 7.70
22 | CCOc1cc2ncc(-c3cc(Cl)c(N)nc3F)n2cc1S(=O)(=O)C(C)C [Example 118, 3-chloro-5-[6-ethoxy-5-(isopropylsulfonyl)-1,3a-diaza-3-indenyl]-6-fluoro-2-pyridylamine] | 6.00 to 6.60 | 7.70 to 8.60 | –
23 | CCOc1cc2ncc(-c3cc(F)c(N)nc3F)n2cc1S(=O)(=O)C(C)C [Example 119, 5-[6-ethoxy-5-(isopropylsulfonyl)-1,3a-diaza-3-indenyl]-3,6-difluoro-2-pyridylamine] | < 6.00 | 7.70 to 8.60 | –
24 | CCOc1cc2ncc(-c3ccc(N)nc3F)n2cc1S(=O)(=O)C(C)C [Example 120, 5-[6-ethoxy-5-(isopropylsulfonyl)-1,3a-diaza-3-indenyl]-6-fluoro-2-pyridylamine] | < 6.00 | – | < 7.70
25 | Nc1nc(F)c(-c2cnc3ccccn23)cc1F [Example 121, 5-(1,3a-diaza-3-indenyl)-3,6-difluoro-2-pyridylamine] | < 6.00 | – | < 7.70
26 | COc1cc2ncc(-c3cc(F)c(N)nc3F)n2cc1C1(F)CCN(C)CC1 [Example 122, 3,6-difluoro-5-[5-(4-fluoro-1-methyl-4-piperidyl)-6-methoxy-1,3a-diaza-3-indenyl]-2-pyridylamine] | < 6.00 | – | < 7.70
27 | COc1cc2ncc(-c3cc(F)c(N)nc3F)n2cc1S(=O)(=O)C(C)(C)CF [Example 123, 3,6-difluoro-5-[5-(2-fluoro-1,1-dimethylethylsulfonyl)-6-methoxy-1,3a-diaza-3-indenyl]-2-pyridylamine] | < 6.00 | – | < 7.70
28 | CCCS(=O)(=O)Nc1cc(-c2cnc3cc(OC)c(S(=O)(=O)C(C)(C)C)cn23)cn(C)c1=O [Example 124, N-(5-(6-(tert-butylsulfonyl)-7-methoxyimidazo[1,2-a]pyridin-3-yl)-1-methyl-2-oxo-1,2-dihydropyridin-3-yl)propane-1-sulfonamide] | < 6.00 | 7.70 to 8.60 | –
29 | COc1cc2ncc(-c3cc(NCCCO)c(=O)n(C)c3)n2cc1S(=O)(=O)C(C)(C)C [Example 125, 5-(6-(tert-butylsulfonyl)-7-methoxyimidazo[1,2-a]pyridin-3-yl)-3-((3-hydroxypropyl)amino)-1-methylpyridin-2(1H)-one] | 6.60 to 7.30 | 7.70 to 8.60 | –
30 | COc1cc(N)cc(-c2cnc3cc(OC)c(S(=O)(=O)C(C)(C)C)cn23)n1 [Example 126, 2-(6-(tert-butylsulfonyl)-7-methoxyimidazo[1,2-a]pyridin-3-yl)-6-methoxypyridin-4-amine] | < 6.00 | – | < 7.70
31 | COc1cc2ncc(-c3ccc(F)c(N)c3)n2cc1S(=O)(=O)C(C)(C)C [Example 127, 5-(6-(tert-butylsulfonyl)-7-methoxyimidazo[1,2-a]pyridin-3-yl)-2-fluoroaniline] | < 6.00 | – | < 7.70
32 | COc1cc2ncc(-c3cnc(N)c(N)n3)n2cc1S(=O)(=O)C(C)(C)C [Example 128, 5-(6-(tert-butylsulfonyl)-7-methoxyimidazo[1,2-a]pyridin-3-yl)pyrazine-2,3-diamine] | < 6.00 | – | < 7.70
33 | COc1cc2ncc(-c3cc(F)nc(OCCCO)c3)n2cc1S(=O)(=O)C(C)(C)C [Example 129, 3-({6-fluoro-4-[7-methoxy-6-(2-methylpropane-2-sulfonyl)imidazo[1,2-a]pyridin-3-yl]pyridin-2-yl}oxy)propan-1-ol] | < 6.00 | – | < 7.70
34 | CCCS(=O)(=O)Nc1cc(-c2cnc3cc(OC)c(S(=O)(=O)C(C)(C)C)cn23)ccc1OC [Example 130, N-{2-methoxy-5-[7-methoxy-6-(2-methylpropane-2-sulfonyl)imidazo[1,2-a]pyridin-3-yl]phenyl}propane-1-sulfonamide] | 6.00 to 6.60 | 8.60 to 9.00 | –
